Patent US20230183216A1, “PYRIDIZIN-3(2H)-ONE DERIVATIVES” (Gilead Sciences, Inc., priority 2021, published 2023)

Experiments:
[1] = system: STAT1 (phosphorylated at Tyr701) in NCI-H1373 cells; test: Phospho-STAT1 (Tyr701) LANCE Ultra TR-FRET Detection Assay; type: cell-based; details: Homo sapiens, 48 hours, induction of pSTAT1, normalized to 10 uM positive control and DMSO, 4-parameter fit, read-out: NH1373 pSTAT1 EC50
Method: Phospho-STAT1 (Tyr701 LANCE Ultra TR-FRET Detection Assay
LANCE Ultra phospho-STAT1 (Tyr701) kits available from Perkin Elmer are designed for the detection of phosphorylated STAT1 in cell lysates using a simple, homogeneous LANCE Ultra sandwich assay (Cat. #TRF4028M). This assay is intended for assessing compound induction of endogenous levels of cellular STAT1 (phosphorylated at Tyr701) in NCI-H1373 cells. The NCI-H1373 cells are cultured in RPMI 1640 media containing 10% heat inactivated FBS, GlutaMAX, 1% Penicillin-Streptomycin. An Echo acoustic liquid handler is used to transfer 60 nanoliters of compound dilutions using the Echo Qualified, 384-well polypropylene microplate clear flat bottom source plates into a Greiner (#781080) cell culture microplate. NCI-H1373 cells are seeded into these compound-spotted culture plates at 30,000 cells/well in a 60 uL volume in growth media. The plates are incubated in a 5% CO2 humidified incubator at 37° C. for 48 hours. […] Briefly, 20 μL of supplemented lysis buffer is added to each well and allowed to shake for 1 hour at 400 rpm. Next, 5 ul of remixed antibody solutions (vol/vol) prepared in detection buffer are added to each well and allowed to incubate at room temperature overnight. After spinning the plate down at 300 rpm for […], the plate is read on an EnVision plate reader set up for Eu3+ Cryptate and fluorescence emission is measured at two different wavelengths (665 nm and 620 nm).

[2] = target: T1, PARP7 (Homo sapiens, UniProt Q7Z3E1); test: biochemical;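 also: MSD light signal quantifying PARP7 captured by a plate-immobilized probe, read after 1.5 h equilibration plus 1.5 h with SULFO-TAG anti-GST antibody at room temperature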
T1 sequence (Q7Z3E1 1-657): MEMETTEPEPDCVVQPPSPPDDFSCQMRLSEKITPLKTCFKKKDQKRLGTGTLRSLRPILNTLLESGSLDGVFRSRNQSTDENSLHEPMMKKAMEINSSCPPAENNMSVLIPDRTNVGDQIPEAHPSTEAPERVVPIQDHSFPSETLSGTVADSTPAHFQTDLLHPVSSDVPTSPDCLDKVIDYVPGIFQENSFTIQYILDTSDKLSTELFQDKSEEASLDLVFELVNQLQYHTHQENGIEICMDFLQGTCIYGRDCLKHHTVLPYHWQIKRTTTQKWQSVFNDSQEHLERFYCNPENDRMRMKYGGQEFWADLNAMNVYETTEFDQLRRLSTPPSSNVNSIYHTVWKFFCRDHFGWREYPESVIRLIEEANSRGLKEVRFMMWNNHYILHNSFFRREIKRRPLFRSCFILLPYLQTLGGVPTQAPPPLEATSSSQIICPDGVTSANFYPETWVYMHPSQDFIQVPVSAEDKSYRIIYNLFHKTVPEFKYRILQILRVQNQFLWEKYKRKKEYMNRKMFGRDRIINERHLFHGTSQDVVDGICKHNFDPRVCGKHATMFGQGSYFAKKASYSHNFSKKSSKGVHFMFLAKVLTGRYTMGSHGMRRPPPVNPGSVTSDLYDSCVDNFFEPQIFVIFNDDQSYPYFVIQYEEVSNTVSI
Method: Probe Displacement Assay for PARP7 Displacement of a biotinylated probe (RBN011147; Wigle et al., Cell Chemical Biology, 2020, pp. 877-887) from the PARP7 NAD+-binding site was measured in vitro using a Mesoscale Discovery electrochemiluminescent assay. […] Next, 10 μl of 10 nM PARP7 protein incubated for 1 hour at room temperature with a dose response curve of each test compound in a Greiner LDV polypropylene plate (#781201) is added to the MSD plate containing the immobilized probe. The interaction is allowed to reach equilibrium for 1.5 hours, and then 10 ul of SULFO-TAG labeled anti-GST antibody (Cat #R32AA-1) is added to each well and allowed to incubate for an additional 1.5 hours at room temperature. Finally, 10 μl of MSD read buffer T (4×, Cat. #R92C-1) is added to each well using a Bravo liquid handler to prevent air bubbles in the wells, and the plates are subsequently read in an MSD instrument. Light intensity is then measured to quantify the amount of PARP7 bound to the immobilized probe on the plate.

| Compound | EC50 [1] [µM] | IC50 [2] [µM] |
| --- | --- | --- |
| CC(CCCC(=O)N1CCN(c2ncc(C(F)(F)F)cn2)CC1)c1cc(C(F)(F)F)c(=O)[nH]n1 (centres unmarked) [Example 8, 6-(6-oxo-6-(4-(5-(trifluoromethyl)pyrimidin-2-yl)piperazin-1-yl)hexan-2-yl)-4-(trifluoromethyl)pyridazin-3(2H)-one] | 0.708 | 0.00139 |
| O=C(N1CCN(c2ncc(C(F)(F)F)cn2)CC1)C1(CCCc2cc(C(F)(F)F)c(=O)[nH]n2)CC1 [Example 9, 4-(trifluoromethyl)-6-(3-(1-(4-(5-(trifluoromethyl)pyrimidin-2-yl)piperazine-1-carbonyl)cyclopropyl)propyl)pyridazin-3(2H)-one] | 1.8 | 0.00144 |
| O=C(CCCc1cc(C(F)(F)F)c(=O)[nH]n1)N1CCN(c2ncc(C(F)(F)F)cn2)CC1 [Example 11, 6-(4-oxo-4-(4-(5-(trifluoromethyl)pyrimidin-2-yl)piperazin-1-yl)butyl)-4-(trifluoromethyl)pyridazin-3(2H)-one] | 1.5 | 0.00467 |
| O=C(CC1(CNc2cc(C(F)(F)F)c(=O)[nH]n2)CC1)N1CCN(c2ncc(C(F)(F)F)cn2)CC1 [Example 12, 6-(((1-(2-oxo-2-(4-(5-(trifluoromethyl)pyrimidin-2-yl)piperazin-1-yl)ethyl)cyclopropyl)methyl)amino)-4-(trifluoromethyl)pyridazin-3(2H)-one] | 0.201 | 0.000364 |
| O=C(OCCCc1cc(C(F)(F)F)c(=O)[nH]n1)N1CCN(c2ncc(C(F)(F)F)cn2)CC1 [Example 13, 3-(6-oxo-5-(trifluoromethyl)-1,6-dihydropyridazin-3-yl)propyl 4-(5-(trifluoromethyl)pyrimidin-2-yl)piperazine-1-carboxylate] | 1.16 | 0.00133 |
| O=C(OC/C=C/c1cc(C(F)(F)F)c(=O)[nH]n1)N1CCN(c2ncc(C(F)(F)F)cn2)CC1 [Example 14, (E)-3-(6-oxo-5-(trifluoromethyl)-1,6-dihydropyridazin-3-yl)allyl 4-(5-(trifluoromethyl)pyrimidin-2-yl)piperazine-1-carboxylate] | 1 | 0.00122 |
| O=C(CCCNc1cc(C(F)(F)F)c(=O)[nH]n1)N1CCN(c2ncc(C(F)(F)F)cn2)CC1 [Example 15, 6-((4-oxo-4-(4-(5-(trifluoromethyl)pyrimidin-2-yl)piperazin-1-yl)butyl)amino)-4-(trifluoromethyl)pyridazin-3(2H)-one] | 0.0719 | 0.000263 |
| O=C(CNc1cc(C(F)(F)F)c(=O)[nH]n1)N1CCN(c2ncc(C(F)(F)F)cn2)CC1 [Example 16, 6-((2-oxo-2-(4-(5-(trifluoromethyl)pyrimidin-2-yl)piperazin-1-yl)ethyl)amino)-4-(trifluoromethyl)pyridazin-3(2H)-one] | 0.171 | 0.00114 |
| O=C(CCNc1cc(C(F)(F)F)c(=O)[nH]n1)N1CCN(c2ncc(C(F)(F)F)cn2)CC1 [Example 17, 6-((3-oxo-3-(4-(5-(trifluoromethyl)pyrimidin-2-yl)piperazin-1-yl)propyl)amino)-4-(trifluoromethyl)pyridazin-3(2H)-one] | 0.973 | 0.0121 |
| O=C(c1cccc(Nc2cc(C(F)(F)F)c(=O)[nH]n2)c1)N1CCN(c2ncc(C(F)(F)F)cn2)CC1 [Example 18, 4-(trifluoromethyl)-6-((3-(4-(5-(trifluoromethyl)pyrimidin-2-yl)piperazine-1-carbonyl)phenyl)amino)pyridazin-3(2H)-one] | ≥ 10 | 0.0327 |
| O=C(c1cccc(CNc2cc(C(F)(F)F)c(=O)[nH]n2)c1)N1CCN(c2ncc(C(F)(F)F)cn2)CC1 [Example 19, 4-(trifluoromethyl)-6-((3-(4-(5-(trifluoromethyl)pyrimidin-2-yl)piperazine-1-carbonyl)benzyl)amino)pyridazin-3(2H)-one] | ≥ 10 | 0.0163 |
| O=C(OCCNc1cc(C(F)(F)F)c(=O)[nH]n1)N1CCN(c2ncc(C(F)(F)F)cn2)CC1 [Example 20, 2-((6-oxo-5-(trifluoromethyl)-1,6-dihydropyridazin-3-yl)amino)ethyl4-(5-(trifluoromethyl)pyrimidin-2-yl)piperazine-1-carboxylate] | ≥ 10 | 0.00176 |
| O=c1[nH]nc(NCCCS(=O)(=O)N2CCN(c3ncc(C(F)(F)F)cn3)CC2)cc1C(F)(F)F [Example 21, 4-(trifluoromethyl)-6-((3-((4-(5-(trifluoromethyl)pyrimidin-2-yl)piperazin-1-yl)sulfonyl)propyl)amino)pyridazin-3(2H)-one] | ≥ 10 | 0.0186 |
| O=C([C@@H]1C[C@H]1CNc1cc(C(F)(F)F)c(=O)[nH]n1)N1CCN(c2ncc(C(F)(F)F)cn2)CC1 [Example 22, 4-(trifluoromethyl)-6-((((1R,2R)-2-(4-(5-(trifluoromethyl)pyrimidin-2-yl)piperazine-1-carbonyl)cyclopropyl)methyl)amino)pyridazin-3(2H)-one] | ≥ 10 | 0.00257 |
| O=C(CCCCNc1cc(C(F)(F)F)c(=O)[nH]n1)N1CCN(c2ncc(C(F)(F)F)cn2)CC1 [Example 23, 6-((5-oxo-5-(4-(5-(trifluoromethyl)pyrimidin-2-yl)piperazin-1-yl)pentyl)amino)-4-(trifluoromethyl)pyridazin-3(2H)-one] | 0.532 | 0.000521 |
| O=C([C@@H](O)CCNc1cc(C(F)(F)F)c(=O)[nH]n1)N1CCN(c2ncc(C(F)(F)F)cn2)CC1 [Example 25, (S)-6-((3-hydroxy-4-oxo-4-(4-(5-(trifluoromethyl)pyrimidin-2-yl)piperazin-1-yl)butyl)amino)-4-(trifluoromethyl)pyridazin-3(2H)-one] | 0.0213 | 0.000141 |
| O=C([C@H](O)CCNc1cc(C(F)(F)F)c(=O)[nH]n1)N1CCN(c2ncc(C(F)(F)F)cn2)CC1 [Example 26, (R)-6-((3-hydroxy-4-oxo-4-(4-(5-(trifluoromethyl)pyrimidin-2-yl)piperazin-1-yl)butyl)amino)-4-(trifluoromethyl)pyridazin-3(2H)-one] | 0.901 | 0.0016 |
| O=C(CC[C@@H]1CCCN1c1cc(C(F)(F)F)c(=O)[nH]n1)N1CCN(c2ncc(C(F)(F)F)cn2)CC1 [Example 27, (S)-6-(2-(3-oxo-3-(4-(5-(trifluoromethyl)pyrimidin-2-yl)piperazin-1-yl)propyl)pyrrolidin-1-yl)-4-(trifluoromethyl)pyridazin-3(2H)-one] | 0.00931 | 0.000212 |
| O=C([C@@H]1CCCCN1c1cc(C(F)(F)F)c(=O)[nH]n1)N1CCN(c2ncc(C(F)(F)F)cn2)CC1 [Example 28, (S)-4-(trifluoromethyl)-6-(2-(4-(5-(trifluoromethyl)pyrimidin-2-yl)piperazine-1-carbonyl)piperidin-1-yl)pyridazin-3(2H)-one] | 0.264 | 0.000879 |
| CN(c1cccc(C(=O)N2CCN(c3ncc(C(F)(F)F)cn3)CC2)c1)c1cc(C(F)(F)F)c(=O)[nH]n1 [Example 29, 6-(methyl(3-(4-(5-(trifluoromethyl)pyrimidin-2-yl)piperazine-1-carbonyl)phenyl)amino)-4-(trifluoromethyl)pyridazin-3(2H)-one] | ≥ 10 | 0.0306 |
| O=C(C[C@@H]1CCCCN1c1cc(C(F)(F)F)c(=O)[nH]n1)N1CCN(c2ncc(C(F)(F)F)cn2)CC1 [Example 30, (S)-6-(2-(2-oxo-2-(4-(5-(trifluoromethyl)pyrimidin-2-yl)piperazin-1-yl)ethyl)piperidin-1-yl)-4-(trifluoromethyl)pyridazin-3(2H)-one] | 0.779 | 0.00232 |
| O=C(CC[C@@H]1CCCCN1c1cc(C(F)(F)F)c(=O)[nH]n1)N1CCN(c2ncc(C(F)(F)F)cn2)CC1 [Example 31, (S)-6-(2-(3-oxo-3-(4-(5-(trifluoromethyl)pyrimidin-2-yl)piperazin-1-yl)propyl)piperidin-1-yl)-4-(trifluoromethyl)pyridazin-3(2H)-one] | 0.172 | 0.000671 |
